Columns and labels:
Format in all cases: in vivo
[1] = test system: tobaccoes; experiment: Ploidy identification by flow cytometer of OBF1 over-expressing tobaccoes screened with kanamycin; conditions: tobacco; for Proportion of chromosome doubling: OBF1 over-expression
Description: (5) The leaves were transferred to a screening culture medium with corresponding screening resistance; the culture medium was replaced every two to three weeks, and the leaves waited for differentiation.
(8) The ploidy of the plants was identified by a flow cytometer, the doubling ratio of the plants under different screening concentrations of kanamycin was calculated, and the results are shown in Table 6 and FIGS. 14A-14B.

[2] = test system: tomatoes; experiment: Ploidy identification by flow cytometer of OBF1 over-expressing tomatoes screened with kanamycin; conditions: tomato; for Proportion of chromosome doubling: OBF1 over-expression
Description: (5) The explants were transferred and placed into the screening culture medium; the photoperiod was 18/6 h, the temperature was 22-25° C., the humidity was 60%, and concentration settings of kanamycin and compositions of culture media were shown in Table 3;
(6) The ploidy of the plants was identified by a flow cytometer, the doubling ratio of the plants under different screening concentrations of kanamycin was calculated, and the results are shown in Table 4 and FIGS. 12A-12B.

[3] = test system: petunia; experiment: Ploidy identification by flow cytometer of OBF1 over-expressing petunias screened with kanamycin; conditions: for Proportion of chromosome doubling: OBF1 over-expression
Description: (9) Two days later, the leaves were transferred to a regeneration culture medium with corresponding screening resistance, the culture medium was replaced every two to three weeks, and the leaves waited for differentiation.
(14) The ploidy of the plants was identified by a flow cytometer, a doubling ratio of the plants under different treatment concentrations of kanamycin was calculated, and the results are shown in Table 2 and FIGS. 10A-10C.

NC[C@H]1O[C@H](O[C@H]2[C@H](O)[C@@H](O[C@H]3O[C@H](CO)[C@@H](O)[C@H](N)[C@H]3O)[C@H](N)C[C@@H]2N)[C@H](O)[C@@H](O)[C@@H]1O [kanamycin]
Proportion of chromosome doubling ([1]; kanamycin 50 mg/mL): 0%
Proportion of chromosome doubling ([1]; kanamycin 100 mg/mL): 33.3%
Chromosome-doubled plant ([1]; kanamycin 50 mg/mL, of 10 transgenic plants): 0 plant
Chromosome-doubled plant ([1]; kanamycin 100 mg/mL, of 20 transgenic plants): 6 plant
Proportion of chromosome doubling ([2]; kanamycin 50 mg/mL): 0%
Proportion of chromosome doubling ([2]; kanamycin 100 mg/mL): 60%
Chromosome-doubled plant ([2]; kanamycin 50 mg/mL, of 30 transgenic plants): 0 plant
Chromosome-doubled plant ([2]; kanamycin 100 mg/mL, of 10 transgenic plants): 6 plant
Proportion of chromosome doubling ([3]; kanamycin 50 mg/L): 0%
Proportion of chromosome doubling ([3]; kanamycin 100 mg/L): 63.6%
Proportion of chromosome doubling ([3]; kanamycin 150 mg/L): 80%
Chromosome-doubled plant ([3]; kanamycin 50 mg/L, of 27 transgenic plants): 0 plant
Chromosome-doubled plant ([3]; kanamycin 100 mg/L, of 22 transgenic plants): 14 plant
Chromosome-doubled plant ([3]; kanamycin 150 mg/L, of 6 transgenic plants): 4 plant

Reference: US20250122520A1, “Application of OBF1 Transcription Factor in Chromosome Doubling of Plant and Transgenic Plant Cultivation Method” (JIANGSU ACADEMY OF AGRICULTURAL SCIENCES, priority 2023, published 2025)
